Measurements taken from the supplement of paper PMC10307832.

Tests used:
Experiment in all cases: relative viability (nuclei count vs DMSO), 5 days (fraction); higher = more cells survive
[1] = system: NCI-H1395
Outline: (§1)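 Cells from lung cancer lines were seeded into 1536-well plates and, one day later, dosed by pin tool. Treatments were either a single drug or a fixed dose of an anchor drug with five library-drug doses (not always all listed) in √10 steps. After 5 days, nuclei were stained in a one-step fixation (final 0.05% Triton X-100, 1% formaldehyde, 1 ug/ml Hoechst) and counted on 4× images, and relative viability is the treated-to-vehicle nuclei ratio, as the median of duplicate plates.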

[2] = system: NCI-H1651
Outline: as §1

[3] = system: NCI-H661
Outline: as §1

[4] = system: NCI-H1915
Outline: as §1

[5] = system: NCI-H2228
Outline: as §1

[6] = system: NCI-H2347
Outline: as §1

[7] = system: NCI-H2087
Outline: as §1

[8] = system: NCI-H1944
Outline: as §1

[9] = system: NCI-H1793
Outline: as §1

[10] = system: H3255
Outline: as §1

[11] = system: NCI-H1437
Outline: as §1

[12] = system: EMC-BAC-2
Outline: as §1

[13] = system: NCI-H2085
Outline: as §1

[14] = system: CAL-12T
Outline: as §1

[15] = system: NCI-H1755
Outline: as §1

[16] = system: LC-2-ad
Outline: as §1

[17] = system: LK-2
Outline: as §1

[18] = system: PC-3 [JPC-3]
Outline: as §1

[19] = system: SK-LU-1
Outline: as §1

[20] = system: COR-L 105
Outline: as §1

COCC1(CO)C(=O)C2CCN1CC2 (stereo unspecified) [PRIMA-1MET] + CS(=O)(=O)N1CCN(Cc2cc3nc(-c4cccc5[nH]ncc45)nc(N4CCOCC4)c3s2)CC1 [Pictilisib] (partner 1 µM)
relative viability ([1]; first compound 0.2 µM): 0.613
relative viability ([1]; first compound 0.6325 µM): 0.458
relative viability ([1]; first compound 2 µM): 0.602
relative viability ([1]; first compound 6.325 µM): 0.518
relative viability ([1]; first compound 20 µM): 0.383
relative viability ([2]; first compound 0.2 µM): 0.662
relative viability ([2]; first compound 0.6325 µM): 0.583
relative viability ([2]; first compound 2 µM): 0.505
relative viability ([2]; first compound 6.325 µM): 0.596
relative viability ([2]; first compound 20 µM): 0.44
relative viability ([3]; first compound 0.2 µM): 0.396
relative viability ([3]; first compound 0.6325 µM): 0.238
relative viability ([3]; first compound 6.325 µM): 0.447
relative viability ([3]; first compound 20 µM): 0.262
relative viability ([4]; first compound 0.2 µM): 0.712
relative viability ([4]; first compound 0.6325 µM): 0.785
relative viability ([4]; first compound 2 µM): 0.625
relative viability ([4]; first compound 6.325 µM): 0.705
relative viability ([4]; first compound 20 µM): 0.932
relative viability ([5]; first compound 0.2 µM): 0.421
relative viability ([5]; first compound 0.6325 µM): 0.343
relative viability ([5]; first compound 2 µM): 0.358
relative viability ([5]; first compound 6.325 µM): 0.19
relative viability ([5]; first compound 20 µM): 0.0615
relative viability ([6]; first compound 0.2 µM): 0.416
relative viability ([6]; first compound 0.6325 µM): 0.741
relative viability ([6]; first compound 6.325 µM): 0.675
relative viability ([6]; first compound 20 µM): 0.561
relative viability ([7]; first compound 0.2 µM): 0.413
relative viability ([7]; first compound 0.6325 µM): 0.848
relative viability ([7]; first compound 2 µM): 0.966
relative viability ([7]; first compound 6.325 µM): 0.642
relative viability ([7]; first compound 20 µM): 0.659
relative viability ([8]; first compound 0.2 µM): 0.332
relative viability ([8]; first compound 0.6325 µM): 0.324
relative viability ([8]; first compound 6.325 µM): 0.328
relative viability ([8]; first compound 20 µM): 0.363
relative viability ([9]; first compound 0.2 µM): 0.372
relative viability ([9]; first compound 0.6325 µM): 0.251
relative viability ([9]; first compound 6.325 µM): 0.343
relative viability ([9]; first compound 20 µM): 0.325
relative viability ([10]; first compound 0.2 µM): 0.493
relative viability ([10]; first compound 0.6325 µM): 0.437
relative viability ([10]; first compound 2 µM): 0.466
relative viability ([10]; first compound 6.325 µM): 0.469
relative viability ([10]; first compound 20 µM): 0.406
relative viability ([11]; first compound 0.2 µM): 0.463
relative viability ([11]; first compound 0.6325 µM): 0.481
relative viability ([11]; first compound 2 µM): 0.356
relative viability ([11]; first compound 6.325 µM): 0.466
relative viability ([11]; first compound 20 µM): 0.412
relative viability ([12]; first compound 0.2 µM): 0.608
relative viability ([12]; first compound 0.6325 µM): 0.503
relative viability ([12]; first compound 2 µM): 0.343
relative viability ([12]; first compound 6.325 µM): 0.566
relative viability ([12]; first compound 20 µM): 0.583
relative viability ([13]; first compound 0.2 µM): 0.44
relative viability ([13]; first compound 0.6325 µM): 0.419
relative viability ([13]; first compound 2 µM): 0.33
relative viability ([13]; first compound 6.325 µM): 0.4
relative viability ([13]; first compound 20 µM): 0.359
relative viability ([14]; first compound 0.2 µM): 0.486
relative viability ([14]; first compound 0.6325 µM): 0.421
relative viability ([14]; first compound 2 µM): 0.315
relative viability ([14]; first compound 6.325 µM): 0.332
relative viability ([14]; first compound 20 µM): 0.0828
relative viability ([15]; first compound 0.2 µM): 0.187
relative viability ([15]; first compound 0.6325 µM): 0.421
relative viability ([15]; first compound 2 µM): 0.206
relative viability ([15]; first compound 6.325 µM): 0.391
relative viability ([15]; first compound 20 µM): 0.3
relative viability ([16]; first compound 0.2 µM): 0.933
relative viability ([16]; first compound 0.6325 µM): 0.445
relative viability ([16]; first compound 2 µM): 0.321
relative viability ([16]; first compound 6.325 µM): 0.468
relative viability ([16]; first compound 20 µM): 0.421
relative viability ([17]; first compound 0.2 µM): 0.652
relative viability ([17]; first compound 0.6325 µM): 0.57
relative viability ([17]; first compound 2 µM): 0.359
relative viability ([17]; first compound 6.325 µM): 0.364
relative viability ([17]; first compound 20 µM): 0.16
relative viability ([18]; first compound 0.2 µM): 0.681
relative viability ([18]; first compound 0.6325 µM): 0.653
relative viability ([18]; first compound 2 µM): 0.652
relative viability ([18]; first compound 6.325 µM): 0.777
relative viability ([18]; first compound 20 µM): 0.688
relative viability ([19]; first compound 0.2 µM): 0.592
relative viability ([19]; first compound 0.6325 µM): 0.549
relative viability ([19]; first compound 2 µM): 0.357
relative viability ([19]; first compound 6.325 µM): 0.697
relative viability ([19]; first compound 20 µM): 0.142
relative viability ([20]; first compound 0.2 µM): 0.387
relative viability ([20]; first compound 0.6325 µM): 0.346
relative viability ([20]; first compound 2 µM): 0.324
relative viability ([20]; first compound 6.325 µM): 0.245
relative viability ([20]; first compound 20 µM): 0.2
